Measurements from patent US20210403443A1, “SUBSTITUTED 1,2,4-OXADIAZOLE, ITS APPLICATION AND A PHARMACEUTICAL PREPARATION COMPRISING IT” (SVENOX PHARMACEUTICALS LLC, priority 2018, published 2021).
In brackets after ≈: the same amount, converted by molar mass.

Key:
Test in all cases: microbe, parasite or virus in culture
Type in all cases: cell-based
Settings in all cases: for MIC: Mycobacterium tuberculosis, 336 h, read-out: Minimum inhibiting concentration of substances with general formula I
[1] = test system: M. tuberculosis MDR strain Praha 1
[2] = test system: M. tuberculosis MDR strain 234/2005
[3] = test system: M. tuberculosis MDR strain 7357/1998
[4] = test system: M. tuberculosis MDR strain Praha 131
[5] = test system: M. tuberculosis MDR strain Praha 4
[6] = test system: M. tuberculosis MDR strain 9449/2007
[7] = test system: M. tuberculosis MDR strain 8666/2010

Row | Molecule | Minimum inhibiting concentration of commonly used antibiotics and antituberculosis medicaments [1] | strain resistant or sensitive to the drug [1] | Minimum inhibiting concentration of commonly used antibiotics and antituberculosis medicaments [2] | strain resistant or sensitive to the drug [2] | Minimum inhibiting concentration of commonly used antibiotics and antituberculosis medicaments [3] | strain resistant or sensitive to the drug [3] | Minimum inhibiting concentration of commonly used antibiotics and antituberculosis medicaments [4] | strain resistant or sensitive to the drug [4] | Minimum inhibiting concentration of commonly used antibiotics and antituberculosis medicaments [5] | strain resistant or sensitive to the drug [5] | Minimum inhibiting concentration of commonly used antibiotics and antituberculosis medicaments [6] | strain resistant or sensitive to the drug [6] | Minimum inhibiting concentration of commonly used antibiotics and antituberculosis medicaments [7] | strain resistant or sensitive to the drug [7] | MIC [1] [µM] | MIC [2] [µM] | MIC [3] [µM] | MIC [4] [µM] | MIC [5] [µM] | MIC [6] [µM] | further results
1 | Gentamicin | 1.05 C μmol · l^−1 | 1.05 C | 0.26 C μmol · l^−1 | 0.26 C | 1.05 C μmol · l^−1 | 1.05 C | >8.37 R μmol · l^−1 | >8.37 R | 0.52 C μmol · l^−1 | 0.52 C | 1.05 C μmol · l^−1 | 1.05 C | 2.09 C μmol · l^−1 | 2.09 C | – | – | – | – | – | – | –
2 | O=[N+]([O-])c1cc(CSc2nc(-c3ccc(Br)cc3)no2)cc([N+](=O)[O-])c1 [Compound 9] | – | – | – | – | – | – | – | – | – | – | – | – | – | – | 0.5 (≈ 0.219 µg/mL) | 0.5 (≈ 0.219 µg/mL) | 1 (≈ 0.437 µg/mL) | 1 (≈ 0.437 µg/mL) | 0.5 (≈ 0.219 µg/mL) | 0.5 (≈ 0.219 µg/mL) | MIC [7]: 0.5 µM (≈ 0.219 µg/mL)
3 | O=[N+]([O-])c1cc(CSc2nc(-c3ccc(Cl)cc3)no2)cc([N+](=O)[O-])c1 [Compound 4] | – | – | – | – | – | – | – | – | – | – | – | – | – | – | 2 (≈ 0.786 µg/mL) | 0.5 (≈ 0.196 µg/mL) | 1 (≈ 0.393 µg/mL) | 1 (≈ 0.393 µg/mL) | 0.5 (≈ 0.196 µg/mL) | 1 (≈ 0.393 µg/mL) | MIC [7]: 0.5 µM (≈ 0.196 µg/mL)
4 | COc1ccc(-c2noc(SCc3cc([N+](=O)[O-])cc([N+](=O)[O-])c3)n2)cc1 [Compound 3] | – | – | – | – | – | – | – | – | – | – | – | – | – | – | 1 (≈ 0.388 µg/mL) | 0.5 (≈ 0.194 µg/mL) | 0.5 (≈ 0.194 µg/mL) | 0.5 (≈ 0.194 µg/mL) | 0.5 (≈ 0.194 µg/mL) | 0.5 (≈ 0.194 µg/mL) | MIC [7]: 0.5 µM (≈ 0.194 µg/mL)
5 | CC(C)/N=c1\cc2n(-c3ccc(Cl)cc3)c3ccccc3nc-2cc1Nc1ccc(Cl)cc1 [Clofazimin] | 0.53 R μmol · l^−1 | 0.53 R | 0.06 C μmol · l^−1 | 0.06 C | 0.13 C μmol · l^−1 | 0.13 C | 0.26 C μmol · l^−1 | 0.26 C | 0.53 R μmol · l^−1 | 0.53 R | 0.13 C μmol · l^−1 | 0.13 C | 2.11 R μmol · l^−1 | 2.11 R | – | – | – | – | – | – | –
6 | CO[C@H]1/C=C/O[C@@]2(C)Oc3c(C)c(O)c4c(O)c(c(/C=N/N5CCN(C)CC5)c(O)c4c3C2=O)NC(=O)/C(C)=C\C=C\[C@H](C)[C@H](O)[C@@H](C)[C@@H](O)[C@@H](C)[C@H](OC(C)=O)[C@@H]1C [Rifampicin] | >9.7 R μmol · l^−1 | >9.7 R | >9.7 R μmol · l^−1 | >9.7 R | >9.7 R μmol · l^−1 | >9.7 R | >9.7 R μmol · l^−1 | >9.7 R | >9.7 R μmol · l^−1 | >9.7 R | >9.7 R μmol · l^−1 | >9.7 R | >9.7 R μmol · l^−1 | >9.7 R | – | – | – | – | – | – | –
7 | [H]/N=C(/N)N[C@H]1[C@H](O)[C@@H](O)[C@H](O[C@@H]2O[C@@H](C)[C@](O)(C=O)[C@H]2O[C@@H]2O[C@@H](CO)[C@H](O)[C@@H](O)[C@@H]2NC)[C@@H](N/C(N)=N\[H])[C@@H]1O [Streptomycin] | 13.7 R μmol · l^−1 | 13.7 R | 27.5 R μmol · l^−1 | 27.5 R | >27.5 R μmol · l^−1 | >27.5 R | >27.5 R μmol · l^−1 | >27.5 R | >27.5 R μmol · l^−1 | >27.5 R | >27.5 R μmol · l^−1 | >27.5 R | >27.5 R μmol · l^−1 | >27.5 R | – | – | – | – | – | – | –
8 | NCC[C@H](O)C(=O)N[C@@H]1C[C@H](N)[C@@H](O[C@H]2O[C@H](CN)[C@@H](O)[C@H](O)[C@H]2O)[C@H](O)[C@H]1O[C@H]1O[C@H](CO)[C@@H](O)[C@H](N)[C@H]1O [Amikacin] | 0.43 C μmol · l^−1 | 0.43 C | 0.43 C μmol · l^−1 | 0.43 C | 0.85 C μmol · l^−1 | 0.85 C | >27.2 R μmol · l^−1 | >27.2 R | 0.85 C μmol · l^−1 | 0.85 C | 0.43 C μmol · l^−1 | 0.43 C | 1.7 C μmol · l^−1 | 1.7 C | – | – | – | – | – | – | –
9 | CC1COc2c(N3CCN(C)CC3)c(F)cc3c(=O)c(C(=O)O)cn1c23 (stereo not drawn) [Ofloxacin] | 1.38 C μmol · l^−1 | 1.38 C | 0.69 C μmol · l^−1 | 0.69 C | 11.1 R μmol · l^−1 | 11.1 R | 22.2 R μmol · l^−1 | 22.2 R | >22.2 R μmol · l^−1 | >22.2 R | 2.75 C μmol · l^−1 | 2.75 C | 11.1 R μmol · l^−1 | 11.1 R | – | – | – | – | – | – | –
10 | NNC(=O)c1ccncc1 [Isoniazid] | 14.6 R μmol · l^−1 | 14.6 R | 14.6 R μmol · l^−1 | 14.6 R | 14.6 R μmol · l^−1 | 14.6 R | 14.6 R μmol · l^−1 | 14.6 R | 14.6 R μmol · l^−1 | 14.6 R | 58.3 R μmol · l^−1 | 58.3 R | 29.2 R μmol · l^−1 | 29.2 R | – | – | – | – | – | – | –
11 | O=[N+]([O-])c1cc(CSc2nc(-c3ccc(F)cc3)no2)cc([N+](=O)[O-])c1 [Compound 8] | – | – | – | – | – | – | – | – | – | – | – | – | – | – | 0.5 (≈ 0.188 µg/mL) | 0.5 (≈ 0.188 µg/mL) | 0.5 (≈ 0.188 µg/mL) | 0.5 (≈ 0.188 µg/mL) | 0.5 (≈ 0.188 µg/mL) | 0.5 (≈ 0.188 µg/mL) | MIC [7]: 0.5 µM (≈ 0.188 µg/mL)
